We go through 8 compounds from patent US20230097753A1, “ALPHA-HYDROXYLATED FATTY-ACID METABOLITES, MEDICAL USES AND USE AS BIOMARKERS” (UNIVERSITAT DE LES ILLES BALEARS, priority 2020, published 2023).

Molecules are shown by their SMILES.

One data set deals with HEK293T cells. The data set can be described thus: Metabolic conversion and uptake of 2-hydroxylated fatty acids in HEK293T cell cultures. The data set is classed as in vitro ADME, human. To be noted: HEK293T; for Formation of the metabolite from its 2-hydroxylated prodrug in the presence of oxythiamine: prodrug 100 μM, 24 h, 10 mM oxythiamine. The protocol: To describe the metabolic conversion of DHA-H to HPA(C21:5 ω-3), as well as the conversion of LA-H to HDA (C17:2 ω-6), ALA-H to HTA ω-3 (C17:3 ω-3), GLA-H to HTA ω-6 (C17:3 ω-6), ARA-H to NTA (C19:4 ω-6), EPA-H to NPA (C19:5 ω-3), HEK293T (Human Embryonic Kidney Cells 293T) cell cultures were employed, which is an embryonic, non-tumoral cell line, widely used in human metabolism studies under physiological conditions.
HEK293T cells were cultured in Dulbecco's Modified Eagle's Medium (DMEM; Dubelcco's Modified Eagle's Medium, Biowest, France), supplemented with 10% FBS (Fetal Bovine Serum; Gibco, Thermo-Fisher), 2 mM L-Gln, 25 mM D(+)-glucose, 1 mM sodium pyruvate, and penicillin/streptomycin. Mouse neuroblastoma N2a cells were maintained in a 1:1 (v:v) mixture of DMEM and Opti-Mem (Gibco, Thermo-Fisher), supplemented with 5% FBS and penicillin/streptomycin. Both cell lines were incubated in an atmosphere of 5% CO2 at 37° C.
HEK293T cells were incubated with DHA-H and DHA at 10, 30 and 100 μM for 24 hours, and at 30 μM for 6, 48 and 72 hours. These cells were also incubated with LA-H, ALA-H, GLA-H, ARA-H and EPA-H at 100 μM for 24 hours. HEK293T cells were also incubated with oxythiamine in the presence of DHA-H under the same conditions, at final oxythiamine concentrations of 1 and 10 mM. The HEK293T cells were separated from the plates by pipettes with cold phosphate buffer saline solution (PBS). Cells were recovered by centrifugation (1000 xg, 10 min at 4° C.) and washed twice with cold PBS before being frozen at −80° C. To analyze DHA-H and DHA levels in the cell culture medium, 90 mm diameter plates were filled with 11 mL of complete cell culture medium containing 30 μM DHA-H or DHA in the presence or absence of attached HEK293T cells (5.10^5 cells/plate). The plates were incubated as described above and 1 ml aliquots of the plates were collected at 0, 6, 24, 48 and 72 hours. Aliquots of the cell culture medium were immediately centrifuged at 1000×g for 10 min at 4° C. to remove any cell suspension and the cell-free aliquots were stored at -20° C.
The cell lysates were subjected to ultrasound pulses (4 cycles, 10 s/cycle, 10 W) before lipid extraction. For brain analysis, the tissue of each animal was homogenized in cold PBS at 1:10 (p:v) in the presence of protease inhibitors (Roche), using a blade homogenizer (Polytron PT3100). Homogenates were ultrasounded, aliquots were made and stored at −80 ° C. Only one aliquot of each sample, containing about 8 mg protein/aliquot, was subjected to lipid extraction. Protein content before lipid extraction was determined by a modified Lowry method (Bio-rad DC Protein Assay).
Margaric acid (C17:0) was added to the samples subjected to lipid extraction as an internal standard and the lipids were extracted with chloroform:methanol (Eggers and Schwudke, 2016). Briefly, 0.75 volumes of the aqueous phase (which already contained the biological sample) were mixed with 2 volumes of chloroform and 1 volume of methanol. This mixture was vortexed for 1 minute and centrifuged at 1000×g for 10 minutes. The lower organic phase was collected and washed with 1 ml of PBS:methanol (1:1,v:v), and the resulting organic phase was dried under argon flow. The film containing the extracted lipids was transmethylated by incubation of the lipid mixture for 90 minutes at 100° C. in 3 ml of methanol:acetyl chloride (10:1, v:v), under an argon atmosphere (Christie, 1993). The resulting fatty acid methyl esters (FAMEs) were extracted with hexane, adding 3 ml of H2O and 1 ml of hexane to the transmethylation reaction, and vortexing the mixture thoroughly. After centrifugation at room temperature (1000×g for 10 min), the upper phase containing the FAMEs was collected and the remaining volume was washed twice with 1 ml of hexane.

In a further data set the test system is A549. The data set can be described thus: IC50 in tumor cell cultures (cell survival, XTT / trypan blue). To be noted: A549 human lung adenocarcinoma cell line. Type of data set: cell-based. The protocol:
(§1) Cell survival was analyzed in a Barker chamber using trypan blue vital exclusion staining (Scharlab) or by cell proliferation kit II (Roche). Briefly, the cells were seeded in 96-well plates at a density of 3 x 10^3 cells per well 24 h prior to treatment, and then cultured in the presence or absence of compounds of interest at the concentrations and for the times indicated in the figures. After different times, plaque viable cells were determined by the addition of XTT according to the manufacturers instructions. Cells were incubated at 37° C. in 5% CO2 until a constant color was developed and absorbance was recorded at 495 nm using a microplate reader with a reference wavelength of 650 nm (FLUOstar Omega, BMG LABTECH, Germany).
(§2) The anti-tumor activity of the different metabolites described in FIGS. 8 and 9 was determined by direct treatment with these molecules (HDA or C17:2 ω-6, HTA ω-3 or C17:3 ω-3, HTA ω-6 or C17:3 ω-6, NTA or C19:4 ω-6, NPA or C19:5 ω-3, and HPA or C21:5 ω-3) in tumor cell cultures, on which the IC50 value for each of these compounds was determined (Inhibitory Concentration 50: concentration of study compound that induces death of 50% of the tumor cell population).
(Tetrazolium assays rely on reduction of a dye to a coloured formazan, in cell work by metabolically active cells.)

The next data set concerns MIA-PaCa 2. Described as above. The data set is classed as cell-based. To be noted: Homo sapiens; MIA-PaCa 2 pancreatic cancer cell line. How it is done: as §1, §2
The subject of the next data set is SF-295 glioma cells. The data set can be described thus: Cell viability by violet crystal staining, 72 hours. The data set is classed as cell-based, human. The note with it: SF-295, 72 hours. The protocol:
FIG. 14. Effect of 2OHOA sodium salt, OA and C17:1n-9 sodium salt on cell viability and proliferation of glioma cells. […] Viability was determined by violet crystal staining.
(§3) In order to evaluate the antiproliferative effect of C17:1n-9, its IC50, which corresponds to the amount of a compound needed to reduce cell viability in vitro by 50%, as well as its effect on the regulation of proteins involved in the mechanism of action of 2OHOA, were determined. […] Upon completion of treatment, IC50 was determined by violet crystal staining technique. […] The IC50 of 2OHOA was 1000 μM for non-tumor cells, MRC-5 and astrocytes.

Data set [1] deals with MRC-5 (human fibroblasts). Described as above. The note with it: MRC-5 non-tumor cells. The data set is classed as cell-based. How it is done: FIG. 15. Effect of 2OHOA sodium salt, C17:1n-9 sodium salt, and OA on cell viability and proliferation of non-tumor cells. Non-tumor cell viability curves (A1-A3) MRC-5 (human fibroblasts); and (B1-B3) mouse astrocytes treated with increasing doses of 2OHOA sodium salt (0-1000 μM) (A1 and B1); OA (0-300 μM) (A2 and B2); and C17:1n-9 sodium salt (0-300 μM) (A3 and B3) for 72 hours. Viability was determined by violet crystal staining.
as §3

The test system of another data set is SF-295. The data set can be described thus: Cell survival by trypan blue vital exclusion staining, 2OHOA and oxythiamine. The note with it: SF-295, 2 mM oxythiamine, 72 hours. The data set is classed as cell-based, human. How it is done: FIG. 18. Effect of metabolite C17:1n-9 on the action of 2OHOA. […] Cell viability was determined by vital exclusion staining with trypan blue.
(§4) To study whether the metabolite C17:1n-9 can participate in the action of 2OHOA, the effect of pre-incubation with oxythiamine on cell survival and 2OHOA-regulated proteins was studied. To do this, the cell survival of different glioma and non-tumor cell lines treated with 2OHOA (400 μM, 72 hours) and pre-incubated or not with 2 mM […] (90 minutes) was analyzed by counting the cells with the vital exclusion stain with trypan blue. In addition, Western-blot 2OHOA-modulated proteins were studied. In glioma cells, a significant decrease in cell survival was observed after incubation with 2 mM oxythiamine for 72 hours.

Data set [2] concerns BIP, CHOP, cJun phosphorylation, phosphorylation of Akt, cyclin D3. Put plainly: Western Blot of proliferation and death markers in glioma and non-tumor cell lines. Type of data set: cell-based. The note with it: glioma cells, oxythiamine 2 mM, 72h. The protocol: FIG. 16. Analysis of the effect of different fatty acids on markers of proliferation and death in different cell lines.
as §4

Turning to `CC/C=C\C/C=C\C/C=C\C/C=C\C/C=C\C/C=C\CCC(=O)O` [DHA, docosahexaenoic acid, reference compound], the “Levels in the culture medium in the presence of cell culture (uptake)” value in the data set with HEK293T cells (30 μM, up to 72 h) was “decreased significantly at 48 and 72 h”.

The IC50 is the point on the concentration scale where inhibition reaches its midpoint. Low readings indicate higher potency, high ones lower potency. As to `CCCCC/C=C\C/C=C\CCCCCCC(=O)O` [HDA, (8Z,11Z)-heptadeca-8,11-dienoic acid], the IC50 in the data set with A549 is 159 ± 10 µM; with MIA-PaCa 2, 234 ± 18 µM. Also, the “Formation of the metabolite from its 2-hydroxylated prodrug in the presence of oxythiamine” value (“Formation of the metabolite” below) with HEK293T cells is on record as “inhibited”.

For `CC/C=C\C/C=C\C/C=C\CCCCCCC(=O)O` [HTA n-3, (8Z,11Z,14Z)-heptadeca-8,11,14-trienoic acid], the IC50 in the data set on A549 stood at 166 ± 30 µM; in the data set on MIA-PaCa 2, 216 ± 24 µM. The “Formation of the metabolite” value with HEK293T cells is listed as “inhibited”.

For the compound `CCCCC/C=C\C/C=C\C/C=C\CCCC(=O)O` [HTA n-6, (5Z,8Z,11Z)-heptadeca-5,8,11-trienoic acid], the results for the IC50 with A549 and in the data set on MIA-PaCa 2 were 212 ± 48 µM and 95 ± 31 µM, respectively. Also, the “Formation of the metabolite” value in the data set on HEK293T cells was “inhibited”.

As for `CC/C=C\C/C=C\C/C=C\C/C=C\C/C=C\CCC(=O)O` [NPA, (4Z,7Z,10Z,13Z,16Z)-nonadeca-4,7,10,13,16-pentaenoic acid], the 50% inhibitory concentration (IC50) in the data set on A549 stood at 143 ± 39 µM; in the data set with MIA-PaCa 2, 91 ± 18 µM. The “Formation of the metabolite” value in the data set with HEK293T cells was “inhibited”.

Consider `CCCCC/C=C\C/C=C\C/C=C\C/C=C\CCC(=O)O` [NTA, (4Z,7Z,10Z,13Z)-nonadeca-4,7,10,13-tetraenoic acid], for which the IC50 in the data set on A549 amounted to 216 ± 3 µM; in the data set on MIA-PaCa 2, 62 ± 2 µM. In the data set on HEK293T cells, the “Formation of the metabolite” value is listed as “inhibited”.

Consider `CCCCCCCC/C=C\CCCCCCCC(=O)[O-].[Na+]` [OA, reference compound], for which the results for the IC50 (in the data set on SF-295 glioma cells; in data set [1]) were 256 ± 5.79 µM and 236 ± 6.73 µM, respectively.

Regarding `Cc1ncc(C[n+]2csc(CCO)c2C)c(=O)[nH]1` [oxythiamine, reference compound], in the data set with SF-295, the Cell death was 17.35±0.63%. Also, the “Effect on signaling proteins (Western Blot)” value in data set [2] is listed as “in the same sense as 2OHOA, although milder”. For the same compound, the “Inhibition of the increase in HPA levels from DHA-H” value was “partial inhibition” with HEK293T cells (oxythiamine 1 mM) and “almost total” with HEK293T cells (oxythiamine 10 mM).
